Test [1] concerns Lymphocyte. Kind of test: Selectivity index, TC50 for human lymphocytes/EC50 for HIV1 3B. Type of test: functional.
Test [2] has as its system C8166. Kind of test: Selectivity index, TC50 for C8166 cell line/EC50 for HIV1. The test is classed as functional.
The test system of test [3] is MT4. Kind of test: Selectivity index, TC50 for MT4 cell line/EC50 for HIV1. The test is classed as functional.
The subject of test [4] is MT4. Kind of test: Cytotoxicity against MT4 cell line by MTT assay. Type of test: functional. To be noted: Homo sapiens, read-out: TC50 (the source's name). A general note: Tetrazolium assays rely on reduction of a dye to a coloured formazan, in cell work by metabolically active cells.
Test [5] relates to Human immunodeficiency virus 1. Kind of test: Antiviral activity against HIV1 in MT4 cell line. The test is classed as functional, organism-based. The settings on record: Human immunodeficiency virus 1, MT4.
In test [6] the test system is Human immunodeficiency virus 1. Kind of test: Antiviral activity against HIV1 in C8166 cell line. Type of test: functional, organism-based. The settings on record: Human immunodeficiency virus 1, C8166.
Test [7] has as its system Human immunodeficiency virus 1. Kind of test: Antiviral activity against HIV1 […] in human macrophages. Type of test: functional, organism-based.
The subject of test [8] is Human immunodeficiency virus. Kind of test: Activity against HIV-112 assessed by inhibition of p24 production in human lymphocytes. To be noted: Human immunodeficiency virus 1. Type of test: functional, organism-based.
Test [9] deals with Human immunodeficiency virus 1. Kind of test: Antiviral activity against HIV1 3B in MT4 cell line. The test is classed as functional, organism-based. To be noted: Human immunodeficiency virus 1, 3B.
Test [10] has as its system Human immunodeficiency virus. Kind of test: Activity against HIV-AB1 assessed by inhibition of p24 production in human lymphocytes. To be noted: Human immunodeficiency virus 1. The test is classed as functional, organism-based.
Test [11] relates to Lymphocyte. Kind of test: Selectivity index, TC50 for human lymphocytes/EC50 for HIV-AB1. The test is classed as functional.
Test [12] concerns Macrophage. Kind of test: Selectivity index, TC50 for human macrophages/EC50 for HIV1 […]. Type of test: functional.
The subject of test [13] is Human immunodeficiency virus 1. Kind of test: Antiviral activity against HIV1 Y181C mutant in MT4 cell line. The test is classed as functional, organism-based. The settings on record: Human immunodeficiency virus 1, MT4.
Test [14] relates to Lymphocyte. Kind of test: Selectivity index, TC50 for human lymphocytes/EC50 for HIV-112. Type of test: functional.
Test [15] concerns Human immunodeficiency virus 1. Kind of test: Activity against HIV1 3B assessed by inhibition of p24 production in human lymphocytes. Type of test: functional, organism-based. To be noted: Human immunodeficiency virus 1, 3B.
Test [16] concerns Lymphocyte. Kind of test: Cytotoxicity against human lymphocytes. The test is classed as functional. To be noted: read-out: TC50 (the source's name).
In test [17] the test system is Human immunodeficiency virus 1. Kind of test: Antiviral activity against HIV1 K103N-Y181C mutant in MT4 cell line. The test is classed as functional, organism-based. The settings on record: Human immunodeficiency virus 1, MT4.
Test [18] concerns C8166. Kind of test: Antiproliferative activity against C8166 cell line by MTT assay. Type of test: functional. The settings on record: Homo sapiens, read-out: TC50 (the source's name).
Test [19] concerns Macrophage. Kind of test: Cytotoxicity against human macrophages. The test is classed as functional. To be noted: read-out: TC50 (the source's name).

These results are taken from ChEMBL document CHEMBL1147813, “Design, molecular modeling, synthesis, and anti-HIV-1 activity of new indolyl aryl sulfones. Novel derivatives of the indole-2-carboxamide” (J Med Chem, 2006).

What is called EC50 is the concentration needed to bring the measured effect to its halfway point.

On to `CNNC(=O)c1[nH]c2ccc(Cl)cc2c1S(=O)(=O)c1cc(C)cc(C)c1`, for which the Selectivity index in [1] is on record as >5000; in test [2], >3333; in test [3] it was >5000; in [11], >5000; in [12], >3333; in test [14], >2500. The CC50 in [4], in test [16], in [18] and in test [19] was > 100000 nM in each case. Further, the EC50 is 20 nM in test [5] (read-out: EC50); 20 nM in test [5] (read-out: Log EC50 (converted)); 30 nM in test [6]; 30 nM in test [7]; 40 nM in test [8]; 50 nM in test [9]. Also, the EC50 in [10] was 20 nM; in test [13] it was 130 nM; in test [15], 20 nM; in test [17] it was > 20000 nM.
